In general, IC50 refers to the concentration that gives 50% inhibition.

The results in this text go back to ChEMBL document CHEMBL5247589, “Natural occurrence, bioactivity, and biosynthesis of triene-ansamycins” (Eur J Med Chem, 2022).

≈ marks a conversion by molar mass, not a printed value.

One data set has as its system L5178Y. Briefly: Cytotoxicity against mouse L5178Y. Format: toxicity, cell-based.
For another data set, the system named is SW1990. Description: Antitumor activity against human SW1990 cells assessed as cell growth inhibition incubated for 48 hrs by CCK-8 assay. Format: functional, cell-based. Conditions: SW1990, 48 h. (In general: Tetrazolium assays rely on reduction of a dye to a coloured formazan, in cell work by metabolically active cells.)
The subject of the next data set is PANC-1. Briefly: Antitumor activity against human PANC-1 cells assessed as cell growth inhibition incubated for 48 hrs by CCK-8 assay. Format: functional, cell-based. Conditions: PANC-1, 48 h.
Another data set has as its system C-33-A. Briefly: Antitumor activity against human C33A cells assessed as cell growth inhibition incubated for 3 days. The data set is classed as functional, cell-based. Conditions: 72 h.
For another data set, the system named is MCF7. Description: Antitumor activity against human MCF7 cells assessed as cell growth inhibition incubated for 3 days. Format: functional, cell-based. To be noted: MCF7, 72 h.
The subject of a further data set is COLO 201. Briefly: Antitumor activity against human COL0201 cells assessed as cell growth inhibition incubated for 3 days. The data set is classed as functional, cell-based. To be noted: COLO 201, 72 h.
The subject of data set [1] is HeLa. Description: Antitumor activity against human HeLa cells assessed as cell growth inhibition incubated for 3 days. To be noted: 72 h. The data set is classed as functional, cell-based.
The subject of data set [2] is HeLa. Briefly: Antiproliferative activity against human HeLa cells incubated for 72 hrs by absorbance based assay. Format: functional, cell-based.
The next data set has as its system NCI-H1299. Briefly: Antiproliferative activity against human H1299 cells incubated for 72 hrs by absorbance based assay. The data set is classed as functional, cell-based. Conditions: NCI-H1299, 72 h.
Data set [3] relates to HeLa. Description: Antitumor activity against human HeLa cells assessed as cell growth inhibition incubated for 72 hrs by MTT assay. Format: functional, cell-based.

Regarding `CO[C@H]1/C=C/C=C/C=C/C[C@H](OC(=O)[C@@H](C)NC(=O)C2CCCCC2)[C@H](C)[C@@H](O)/C(C)=C\CCc2cc(O[C@@H]3O[C@H](CO)[C@@H](O)[C@H](O)[C@H]3O)cc(c2O)NC(=O)C1`, the MIC against L5178Y is 1 µM (≈ 0.801 µg/mL).
Regarding `CO[C@@H]1CC(=O)N2c3cc(O)cc4c3O[C@@H](/C=C/C=C/C[C@H](OC(=O)[C@@H](C)NC(=O)C3CCCCC3)[C@H](C)[C@@H](O)/C(C)=C\CC4)[C@H]12`, the IC50 in the data set with SW1990 and in the data set with PANC-1 was 8.29 µM throughout.
Regarding `CO[C@H]1/C=C/C=C/C=C/C[C@H](OC(=O)[C@@H](C)NC(=O)C2CCCCC2)[C@H](C)[C@@H](O)/C(C)=C\CCc2cc3c(c(c2O)NC(=O)C1)SCC(=O)N3`, the 50% inhibitory concentration (IC50) with C-33-A, with MCF7, in the data set with COLO 201 and in the data set on HeLa [1] was 0.00085 µM throughout.
In the case of `CO[C@@H]1CC(=O)Nc2c(O)c3cc4c2[C@H](/C=C/C=C/C[C@H](O)[C@H](C)[C@@H](OC(=O)[C@@H](C)NC(=O)C2CCCCC2)/C(C)=C\CC3)[C@H]1O4`, the IC50 in the data set on SW1990 and in the data set on PANC-1 was 7.79 µM in each case.
Turning to `C[C@@H]1[C@@H](O)[C@H](C)[C@@H](O)CCc2cc(O)cc(c2)NC(=O)C[C@@H](O)/C=C/C=C/C=C/C[C@@H]1O`, the IC50 is 10 µM in the data set with HeLa [2] and greater than 10 µM in the data set with NCI-H1299.
Turning to `CO[C@@H]1CC(=O)Nc2c(O)c3cc4c2[C@@H](/C=C/C=C/C[C@H](OC(=O)[C@@H](C)NC(=O)C2CCCCC2)[C@H](C)[C@@H](O)/C(C)=C\CC3)[C@@H]1O4`, the IC50 with SW1990 and with PANC-1 was 5.81 µM each time.
As to `CO[C@@H]1CC(=O)N2c3cc(O)cc4c3O[C@H](/C=C/C=C/C[C@H](O)[C@H](C)[C@@H](O)/C(C)=C\CC4)[C@H]12`, the IC50 is 10 µM in the data set on HeLa [2] and greater than 10 µM with NCI-H1299.
In the data set on L5178Y, `COc1cc2c(O)c(c1)NC(=O)C[C@@H](OC)/C=C/C=C/C=C/C[C@H](OC(=O)[C@@H](C)NC(=O)C1CCCCC1)[C@H](C)[C@@H](O)/C(C)=C\CC2` displayed an MIC of 0.17 µM (≈ 0.111 µg/mL).
In the case of `CO[C@H]1/C=C/C=C/C=C/C[C@H](O)[C@H](C)[C@@H](O)/C(C)=C\CCc2c(O)c(cc3ncsc23)NC(=O)C1`, the values for the IC50 with HeLa [2] and with NCI-H1299 were 10 µM and greater than 10 µM, respectively.
With `CO[C@@H]1CC(=O)N2c3cc(O)cc4c3O[C@@H](/C=C/C=C/C[C@H](O)[C@H](C)[C@@H](O)/C(C)=C\CC4)[C@@H]12`, the IC50 with HeLa [2] is 10 µM; in the data set with NCI-H1299, greater than 10 µM.
With `CO[C@H]1/C=C/C=C/C=C/C[C@H](OC(=O)[C@@H](C)NC(=O)C2=CCCCC2)[C@H](C)[C@@H](O)/C(C)=C\CCc2cc3c(c(c2O)NC(=O)C1)SCC(=O)N3`, the IC50 in the data set with C-33-A, in the data set on MCF7, with COLO 201 and in the data set with HeLa [1] was 0.0031 µM each time.
Take `CO[C@@H]1CC(=O)Nc2c(O)c3cc4c2[C@H](/C=C/C=C/C[C@H](OC(=O)[C@@H](C)NC(=O)C2CCCCC2)[C@H](C)[C@@H](O)/C(C)=C\CC3)[C@H]1O4`: the IC50 in the data set on SW1990 and in the data set with PANC-1 was 3.99 µM in each case.
As for `CO[C@H]1/C=C/C=C/C=C/C[C@H](OC(=O)[C@@H](C)NC(=O)C2CCCCC2)[C@H](C)C(=O)/C(C)=C\CCc2cc(O)cc(c2O)NC(=O)C1`, the IC50 in the data set on HeLa [3] is greater than 10 µM.
Consider `CO[C@H]1/C=C/C=C/C=C/C[C@H](OC(=O)[C@@H](C)NC(=O)CC(C)C)[C@H](C)[C@@H](O)/C(C)=C\CCc2c(O)c(cc3c2SCC(=O)N3)NC(=O)C1`, for which the IC50 with C-33-A, in the data set with MCF7, in the data set with COLO 201 and with HeLa [1] was 0.15 µM each time.
With `CO[C@@H]1CC(=O)Nc2c(O)c3cc4c2[C@H](/C=C/C=C/C[C@H](OC(=O)[C@@H](C)NC(=O)CC(C)C)[C@H](C)[C@@H](O)/C(C)=C\CC3)[C@H]1O4`, the IC50 with SW1990 and with PANC-1 was greater than 10 µM each time.
`CO[C@H]1/C=C/C=C/C=C/C[C@H](OC(=O)[C@@H](C)NC(=O)C2CCCCC2)[C@H](C)[C@@H](O)/C(C)=C\CCC2=C(SC)C(=O)C=C(NC(=O)C1)C2=O`: the IC50 in the data set on HeLa [3] is 0.055 µM.
Turning to `C/C1=C/CCc2c(O)c(cc3c2SCC(=O)N3)NC(=O)C[C@@H](O)/C=C/C=C/C=C/C[C@H](O)[C@H](C)[C@H]1O`, the IC50 is 10 µM with HeLa [2] and greater than 10 µM in the data set with NCI-H1299.
Consider `CO[C@H]1/C=C/C=C/C=C/C[C@H](OC(=O)[C@@H](C)NC(=O)C2CCCCC2)[C@H](C)[C@@H](O)/C(C)=C\CCC2=CC(=O)C(SC)=C(NC(=O)C1)C2=O`, for which the IC50 in the data set with HeLa [3] is 0.1 µM.
For `CO[C@@H]1CC(=O)Nc2c(O)c3cc4c2[C@@H](/C=C/C=C/C[C@H](OC(=O)[C@@H](C)NC(=O)C2CCCCC2)[C@H](C)[C@@H](O)/C(C)=C\CC3)[C@H]1O4`, the IC50 in the data set on SW1990 and with PANC-1 was 4.73 µM throughout.
For `CO[C@@H]1CC(=O)Nc2c(O)c3cc4c2[C@H](/C=C/C=C/C[C@H](OC(=O)[C@@H](C)NC(=O)C2=CCCCC2)[C@H](C)[C@@H](O)/C(C)=C\CC3)[C@H]1O4`, the IC50 in the data set with SW1990 and with PANC-1 was greater than 10 µM throughout.
As for `CO[C@H]1/C=C/C=C/C=C/C[C@H](OC(=O)[C@@H](C)NC(=O)C2CCCC(O)C2)[C@H](C)[C@@H](O)/C(C)=C\CCc2cc(O)cc(c2O)NC(=O)C1` (stereo partly specified), in the data set with L5178Y, the MIC is 4.89 µM (≈ 3.2 µg/mL).
Turning to `CO[C@@H]1CC(=O)Nc2c(O)c3cc4c2[C@H](/C=C/C=C\C[C@H](OC(=O)[C@@H](C)NC(=O)C2CCCCC2)[C@H](C)[C@@H](O)/C(C)=C\CC3)[C@H]1O4`, the IC50 with SW1990 and in the data set with PANC-1 was 6.9 µM in each case.
As to `CO[C@H]1/C=C/C=C/C=C/C[C@H](OC(=O)[C@@H](C)NC(=O)C2CCCCC2)[C@H](C)C(=O)/C(C)=C\CCC2=CC(=O)C=C(NC(=O)C1)C2=O`, the IC50 in the data set on HeLa [3] was greater than 10 µM.
With `CO[C@H]1/C=C/C=C/C=C/C[C@H](OC(=O)[C@@H](C)NC(=O)C2CCCCC2)[C@H](C)[C@@H](O)/C(C)=C\CCc2c(O)c(cc(O)c2SC)NC(=O)C1`, in the data set on HeLa [3], the IC50 amounted to 0.2 µM.
The compound `CO[C@H]1/C=C/C=C/C=C/C[C@H](O)[C@H](C)[C@@H](O)/C(C)=C\CCC2=CC(=O)C=C(NC(=O)C1)C2=O` yielded an MIC against L5178Y greater than 10 µM.
For `C/C1=C/CCc2cc(O)cc(c2)NC(=O)C[C@@H](O)/C=C/C=C/C=C/C[C@H](O)[C@H](C)[C@H]1O`, the concentration for half-maximal inhibition (IC50) in the data set with HeLa [2] is 10 µM; in the data set with NCI-H1299 it was greater than 10 µM.
For `CO[C@H]1/C=C/C=C/C=C/C[C@@H]2O[C@@](C)([C@H](O)[C@H]2C)[C@H]2CCC3=C(S2)C(=O)C=C(NC(=O)C1)C3=O`, in that order: 10 µM and greater than 10 µM.
For `CO[C@H]1/C=C/C=C/C=C/C[C@H](O)[C@H](C)[C@@H](O)/C(C)=C\CCc2cc(O)cc(c2O)NC(=O)C1`, the MIC with L5178Y worked out at 7 µM (≈ 3.2 µg/mL).
On to `C/C1=C/CCc2cc(O)cc(c2)NC(=O)C[C@@H](O)/C=C/C=C/C=C/C[C@H](O)C[C@H]1O`, for which the half-inhibitory concentration (IC50) in the data set on HeLa [3] was greater than 10 µM.
For `CO[C@H]1/C=C/C=C/C=C/C[C@H](OC(=O)[C@@H](C)NC(=O)C2CCCCC2)[C@H](C)[C@@H](O)/C=C\CCc2cc(O)cc(c2)NC(=O)C1`, the IC50 with HeLa [3] amounted to 0.86 µM.
Take `CO[C@@H]1CC(=O)Nc2c(O)c3cc4c2[C@H](/C=C/C=C/C[C@H](OC(=O)[C@@H](C)NC(=O)CCC(C)C)[C@H](C)[C@@H](O)/C(C)=C\CC3)[C@H]1O4`: the IC50 in the data set on SW1990 and in the data set on PANC-1 was greater than 10 µM in each case.
